Assay results: patent US20030215462A1, “Use of UGT inhibitors to increase bioavailability” (priority 2001, published 2003)
Where “and” joins values, the source holds several entries; their conditions need not be identical. Identical values can stand only once. Like-named read-outs stand apart in the source and are kept apart here.

What was measured:
Type in all cases: biochemical
[1] = tested on: T1, UGT enzymes of human liver microsomes; assay: Inhibition of 7-HFC glucuronidation in human liver microsomes; conditions: for % of control metabolism (SD, n = 3), 7-HFC glucuronidation: 7-HFC 50 μM, human liver microsomes 100 μg/ml, 15 min
T1 construct: percentage of control metabolism, 7-HFC glucuronidation; percentage of control metabolism, 7-HFC glucuronidation

[2] = tested on: UGT enzymes of human liver microsomes; assay: Inhibition of raloxifene glucuronidation (G1, G2) in human liver microsomes
Source text: Compounds were eluted using a binary solvent gradient system. […] Solvent B was methanol. […] Detection was at 280 nm.

[3] = target: T2, UGT enzymes of human liver microsomes (Homo sapiens, UniProt P16662); assay: Inhibition of zidovudine glucuronidation in human liver microsomes; conditions: liver lot 062101
T2 construct: residual metabolism (percentage of control), zidovudine glucuronidation; other: liver lot 062101; residual metabolism (percentage of control), zidovudine glucuronidation; residual metabolism (percentage of control)
T2 sequence (P16662 1-529): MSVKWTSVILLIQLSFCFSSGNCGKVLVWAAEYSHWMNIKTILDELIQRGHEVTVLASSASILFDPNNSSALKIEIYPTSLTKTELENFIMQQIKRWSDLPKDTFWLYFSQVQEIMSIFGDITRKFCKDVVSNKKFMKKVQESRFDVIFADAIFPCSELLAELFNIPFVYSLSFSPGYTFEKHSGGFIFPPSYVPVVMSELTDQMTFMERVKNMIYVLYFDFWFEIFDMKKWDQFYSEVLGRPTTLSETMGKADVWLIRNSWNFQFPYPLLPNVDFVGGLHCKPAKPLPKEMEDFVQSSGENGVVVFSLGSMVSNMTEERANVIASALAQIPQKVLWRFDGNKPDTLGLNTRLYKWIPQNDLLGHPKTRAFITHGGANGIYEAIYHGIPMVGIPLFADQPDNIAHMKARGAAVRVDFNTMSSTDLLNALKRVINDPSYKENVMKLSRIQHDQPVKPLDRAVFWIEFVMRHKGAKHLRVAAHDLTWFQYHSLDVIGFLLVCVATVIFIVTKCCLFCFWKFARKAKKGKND
Experimental: Compounds were eluted using a binary solvent gradient system where solvent A was dilute phosphoric acid (pH 3) and solvent B was acetonitrile.
Standardized incubations utilized 500 μM zidovudine substrate, 1 mg/ml microsomal protein, 5 mM UDPGA and a 30 min incubation time. […] Int.

[4] = G1, inhibitor 100 μM, raloxifene 50 μM, human liver microsomes 250 μg/ml, 15 min
[5] = G1, inhibitor 500 μM, raloxifene 50 μM, human liver microsomes 250 μg/ml, 15 min
[6] = G2, inhibitor 100 μM, raloxifene 50 μM, human liver microsomes 250 μg/ml, 15 min
[7] = G2, inhibitor 500 μM, raloxifene 50 μM, human liver microsomes 250 μg/ml, 15 min

Row | SMILES | percentage of control metabolism, 7-HFC glucuronidation ([1]; inhibitor 100 μM) | % of control metabolism (SD, n = 3), 7-HFC glucuronidation ([1]; inhibitor 100 μM) | percentage of control metabolism, 7-HFC glucuronidation ([1]; inhibitor 200 μM) | % of control metabolism (SD, n = 3), 7-HFC glucuronidation ([1]; inhibitor 200 μM) | percentage of control metabolism, 7-HFC glucuronidation ([1]; inhibitor 500 μM) | % of control metabolism (SD, n = 3), 7-HFC glucuronidation ([1]; inhibitor 500 μM) | % of control metabolism (SD, n = 3), raloxifene glucuronide G1 [2, 4] | % of control metabolism (SD, n = 3), raloxifene glucuronide G1 [2, 5] | % of control metabolism (SD, n = 3), raloxifene glucuronide G2 [2, 6] | % of control metabolism (SD, n = 3), raloxifene glucuronide G2 [2, 7] | residual metabolism (percentage of control), zidovudine glucuronidation ([3]; inhibitor 500 μM) | residual metabolism (percentage of control), zidovudine glucuronidation ([3]; inhibitor 1000 μM) | residual metabolism (percentage of control), zidovudine glucuronidation ([3]; inhibitor 100 μM) | residual metabolism (percentage of control), zidovudine glucuronidation ([3]; inhibitor 200 μM) | further results
1 | COc1cc(CNC(=O)CCCC/C=C/C(C)C)ccc1O [Capsaicin] | 53 (1) % and 57 (0) % | 53 (1), % and 57 (0) % | 42 (1) % and 44 (1) % | 42 (1), % and 44 (1) % | 39 (0) % | 39 (0) % | 55 (4) % | 26 (1) % | 69 (4) % | 33 (3) % | 57 (4) % | 34 (1) % | – | – | percentage of control metabolism, 7-HFC glucuronidation ([1]; inhibitor 50 μM): 69 (1) %; % of control metabolism (SD, n = 3), 7-HFC glucuronidation ([1]; inhibitor 50 μM): 69 (1) %
2 | Cc1ccc(C(C)C)cc1O [Carvacrol] | 79 (1) % | 79 (1) % | 63 (0) % | 63 (0) % | 31 (1) % | 31 (1) % | – | – | – | – | 50 (3) % and 45 (0) % | 20 (1) % | 94 (1) % | 75 (3) % | % of control metabolism (SD, n = 3), raloxifene glucuronide G1 [2]: 37 (1) % and 64 (1) %; % of control metabolism (SD, n = 3), raloxifene glucuronide G2 [2]: 33 (0) % and 60 (1) %
3 | COc1cc(CO)ccc1O [Vanillyl alcohol] | – | 79 (1) % | – | 67 (3) % | – | 42 (0), % and 42 (0) % | – | – | – | – | 95 (5) % | – | – | – | –
4 | CCCCCCCCC(=O)NCc1ccc(O)c(OC)c1 [N-Vanillylnonanamide] | 69 (1) % | 69 (1) % | 63 (2) % | 63 (2) % | 48 (1) % | 48 (1) % | 48 (1) % | 14 (1) % | 62 (1) % | 17 (2) % | 67 (1) % | 40 (1) % | – | – | –
5 | C[C@]12CC[C@@H]3c4ccc(O)cc4CC[C@H]3[C@@H]1CC[C@@H]2O [E2, 17-β-estradiol, reference compound] | – | – | – | – | – | 80 (2) % | – | 39 (1) % | – | 56 (2) % | 29 (1) % and 24 (2) % | – | 28 (1) % | 24 (0) % | residual metabolism (percentage of control), zidovudine glucuronidation ([3]; inhibitor 50 μM): 50 (1) %
6 | CC1=C(/C=C/C(C)=C/C=C/C(C)=C/CO)C(C)(C)CCC1 [Retinol] | 59 (1) % | 59 (1) % | 39 (1) % | 39 (1) % | 25 (1) % | 25 (1) % | – | – | – | – | 76 (2) % | – | – | – | –
7 | CCCCC/C=C\C/C=C\CCCCCCCC(=O)O [Linoleic acid] | 86 (3) % | 86 (3) % | 77 (4) % | 77 (4) % | 33 (1) % | 33 (1) % | 101 (8) % | 29 (0) % | 100 (4) % | – | 68 (5) % | – | – | – | –
8 | CC(C)=CCC/C(C)=C/CO [Geraniol] | – | – | – | – | – | 75 (0) % | – | – | – | – | 28 (3) % and 25 (0) % | 9 (1) % | 77 (5) % | 62 (3) % | –
9 | COc1cc(CNC(=O)CCCCCCC(C)C)ccc1O [Dihydrocapsaicin] | 60 (3) % | 60 (3) % | 52 (2) % | 52 (2) % | 42 (2) % | 42 (2) % | 49 (1) % | 18 (1) % | 68 (2) % | 26 (1) % | 50 (1) % | 42 (2) % | – | – | –
10 | Cc1cc(=O)oc2cc(O)ccc12 [4-Methylumbelliferone, reference compound] | 78 (1) % | 78 (1) % | 64 (1) % | 64 (1) % | 45 (1) % and 47 (2) % | 45 (1), % and 47 (2) % | – | – | – | – | 81 (2) % | – | – | – | % of control metabolism, raloxifene G1 [2]: 35 (3), 39 (2) % and 37 (1), 40 (1) % and 51 (1), 53 (2) % and 69 (4), 71 (8) %; % of control metabolism, raloxifene G2 [2]: 35 (3), 39 (2) % and 37 (1), 40 (1) % and 51 (1), 53 (2) % and 69 (4), 71 (8) %
